According to patent publication US6713048B2, “Δ9 tetrahydrocannabinol (Δ9 THC) solution metered dose inhalers and methods of use” (Virginia Commonwealth University, priority 1998, dated 2004):
Entries after “also recorded” stand apart in the source; their conditions may differ. Read-outs that look alike come from different tables or passages of the source.

What was measured:
[1] = tested on: Nausea and emesis due to Cancer chemotherapy; details: oral THC 15 mg/m^2, cited from earlier work
[2] = tested on: Nausea and emesis due to Cancer chemotherapy; details: oral 10 mg/m^2 THC; refractory to other antiemetics; cited from earlier work
[3] = cited from earlier work
[4] = tested on: Spasticity and pain due to spinal cord injury; details: oral THC (5 mg) or codeine (50 mg); 1 patient; cited from earlier work
[5] = MDI fine particle dose (Andersen Cascade Impactor); type: physicochemical; details: HFA 134a-ethanol MDI; 40° C., 82% relative humidity, 28 days
Experimental: A Δ^9 THC MDI was formulated and the physical properties of the aerosolized drug characterized. The mass of drug metered by the metering valve was determined following a single actuation (metered dose). The mass of drug delivered (emitted dose) was determined. The mass of particles with an aerodynamic diameter less than 4.7 μm was determined.
Appearance, metered dose reproducibility, emitted dose and particle size distribution of the Δ^9 THC MDI were investigated, before and after storage in an environment maintained at 40° C. and 82% relative humidity for a 28 day period. The mass of drug metered by the metering valve (metered dose, n=10) was determined by collecting single actuations directly from the valve in a puff absorber, using the methods of Byron, 1994.
THC was analyzed by LC-UV detection at 280 nm using a 75:25 acetonitrile: 1% acetic acid mobile phase for Δ^9-THC detection. A standard reverse phase C18 column was used.

intra ocular pressure = details: intravenous THC 0.022 or 0.044 mg/kg; ten subjects with normal intra ocular pressure; cited from earlier work
[6] = tested on: AIDS-associated anorexia and cachexia; details: oral 2.5 mg THC once or twice daily increasing to 20 mg daily; 94 patients; 12 months; cited from earlier work
Glaucoma = details: oral 5, 10, 15 and 20 mg THC; 6 glaucoma patients; cited from earlier work
asthmatic patients = details: low concentration aerosol; cited from earlier work
[7] = tested on: Spasticity related to multiple sclerosis; details: oral 5 to 15 mg THC; 8 patients, single blind; cited from earlier work
[8] = tested on: Nausea and emesis due to Cancer chemotherapy; details: oral 5 or 15 mg/m^2 THC four times per day; 53 patients refractory to other antiemetics; cited from earlier work
[9] = tested on: Pain due to advanced cancer; details: 10 and 20 mg THC, 60 and 120 codeine; 34 patients; cited from earlier work
[10] = intravenous, bolus, 5 mg (Ohlsson et al., 1980)
[11] = oral, in cookies, 20 mg (Ohlsson et al., 1980)
[12] = oral, sesame oil in gelatin capsules, 2.5, 5, or 10 mg (PDR, 1995)
[13] = smoking, 13 mg (Ohlsson et al., 1980)

CCCCCc1cc(O)c2c(c1)OC(C)(C)[C@@H]1CCC(C)=C[C@@H]21 (relative stereo) [Δ^9 THC, (6aR-trans)-6a,7,8,10a-tetrahydro-6,6,9-trimethyl-3-pentyl-6H-dibenzo[b,d]-pyran-1-ol]
patients with reduction in chemotherapy-induced nausea and vomiting ([1]; 36 patients refractory to prochlorperazine or thiethylperazine): 64% of patients given THC | side effects ([1]; 36 patients): effects included dysphoria; | courses resulting in a reduction of vomiting (of 20 courses of THC) [2]: resulted in no vomiting, 9 | courses resulting in no decrease in vomiting (of 20 courses of THC) [2]: vomiting, 3 resulted in no | courses resulting in no vomiting (of 20 courses of THC) [2]: In 20 courses of THC, 5 | % Dose in Plasma [3, 10]: 100% | Onset of Pharmacological Action [3, 10]: 10 min | Peak Plasma Levels (time) [3, 10]: 3 min | % Dose in Plasma [3, 11]: 4 to 12% | Onset of Pharmacological Action [3, 11]: 120-180 min | Peak Plasma Levels (time) [3, 11]: 60 to 90 min | % Dose in Plasma [3, 12]: 10 to 20% | Onset of Pharmacological Action [3, 12]: 0.5 to 1 hour | Peak Plasma Levels (time) [3, 12]: 120 to 480 min | % Dose in Plasma ([3]; smoking (THC lost to side stream smoke and pyrolysis), 13 mg (Ohlsson et al., 1980)): 8 to 24% | Onset of Pharmacological Action [3, 13]: 10 min | Peak Plasma Levels (time) [3, 13]: 3 min | effect on spasticity [4]: THC had a beneficial effect | deterioration/degradation of Δ^9-THC content on storage [5]: no deterioration; also recorded: no significant degradation | mean decrease of intra ocular pressure (intra ocular pressure): presser by mean of 37% | appetite compared to controls [6]: improved appetite and only | weight compared to controls [6]: tended to increase weight | appetite (Glaucoma): appetite stimulation, | mood (Glaucoma): elevated mood | pain (Glaucoma): Pain relief | bronchial and systemic effects (asthmatic patients): bronchodilation without systemic side effects | patients with both objective and subjective improvement [7]: tremor. 2 of 8 patients had | patients with mild subjective improvement in tremor [7]: 5 of 8 patients had mild | patients with THC-induced partial or complete blockade of vomiting [8]: 72% of patients exhibited a | analgesic potency compared with codeine [9]: greater potency than | degree of analgesia compared with codeine [9]: THC produced a similar
